The values below come from patent US20170020838A1, “TREATMENT FOR RESPIRATORY DISEASE” (MUCOKINETICA LIMITED, priority 2014, published 2017).

Assay [1] addresses T1, Amiloride-sensitive sodium channels (ENaC) (Sus scrofa, UniProt A0A480QJ99+F1RPF1+I3LGX7).
T1 construct: placed inside the trachea in contact with the tracheal epithelium; from tissue; host or cells: ex vivo pig trachea (tracheal epithelium)
T1 sequence (A0A480QJ99 1-650): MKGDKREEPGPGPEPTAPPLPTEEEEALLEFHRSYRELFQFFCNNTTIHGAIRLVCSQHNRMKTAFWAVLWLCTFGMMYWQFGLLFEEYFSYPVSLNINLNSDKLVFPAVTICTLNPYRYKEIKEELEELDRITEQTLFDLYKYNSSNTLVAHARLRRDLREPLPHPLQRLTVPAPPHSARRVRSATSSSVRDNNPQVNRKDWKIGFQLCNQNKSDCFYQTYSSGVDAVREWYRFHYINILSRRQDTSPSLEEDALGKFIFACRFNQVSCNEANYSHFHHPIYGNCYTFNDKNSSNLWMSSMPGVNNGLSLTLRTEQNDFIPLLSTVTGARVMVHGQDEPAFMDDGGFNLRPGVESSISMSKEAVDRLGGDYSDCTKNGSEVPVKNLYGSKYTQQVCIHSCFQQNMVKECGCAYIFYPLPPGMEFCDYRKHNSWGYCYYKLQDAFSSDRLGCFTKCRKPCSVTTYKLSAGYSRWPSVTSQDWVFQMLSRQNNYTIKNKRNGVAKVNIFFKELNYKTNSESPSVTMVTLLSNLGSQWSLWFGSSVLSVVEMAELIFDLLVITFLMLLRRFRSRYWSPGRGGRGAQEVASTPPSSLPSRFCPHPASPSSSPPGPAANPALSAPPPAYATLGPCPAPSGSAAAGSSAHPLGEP
T1 sequence (I3LGX7 1-644): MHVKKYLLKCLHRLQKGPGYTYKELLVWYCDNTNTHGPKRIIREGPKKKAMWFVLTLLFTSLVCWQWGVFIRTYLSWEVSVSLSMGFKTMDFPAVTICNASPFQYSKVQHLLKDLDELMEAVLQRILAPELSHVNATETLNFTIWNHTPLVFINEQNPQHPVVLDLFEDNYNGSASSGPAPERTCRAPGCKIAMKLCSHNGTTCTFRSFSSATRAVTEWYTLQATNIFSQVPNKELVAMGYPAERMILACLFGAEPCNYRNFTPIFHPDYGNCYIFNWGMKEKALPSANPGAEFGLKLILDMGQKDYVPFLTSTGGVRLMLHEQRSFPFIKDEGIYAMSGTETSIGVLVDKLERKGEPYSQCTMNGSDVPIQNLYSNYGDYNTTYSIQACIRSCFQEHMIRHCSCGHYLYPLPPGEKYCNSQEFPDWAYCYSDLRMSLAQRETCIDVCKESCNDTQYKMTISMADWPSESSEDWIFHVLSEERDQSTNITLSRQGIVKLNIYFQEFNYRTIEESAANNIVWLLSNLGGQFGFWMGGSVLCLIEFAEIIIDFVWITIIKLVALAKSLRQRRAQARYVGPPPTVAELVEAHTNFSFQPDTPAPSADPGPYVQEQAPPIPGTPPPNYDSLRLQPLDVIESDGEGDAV
T1 sequence (F1RPF1 1-652): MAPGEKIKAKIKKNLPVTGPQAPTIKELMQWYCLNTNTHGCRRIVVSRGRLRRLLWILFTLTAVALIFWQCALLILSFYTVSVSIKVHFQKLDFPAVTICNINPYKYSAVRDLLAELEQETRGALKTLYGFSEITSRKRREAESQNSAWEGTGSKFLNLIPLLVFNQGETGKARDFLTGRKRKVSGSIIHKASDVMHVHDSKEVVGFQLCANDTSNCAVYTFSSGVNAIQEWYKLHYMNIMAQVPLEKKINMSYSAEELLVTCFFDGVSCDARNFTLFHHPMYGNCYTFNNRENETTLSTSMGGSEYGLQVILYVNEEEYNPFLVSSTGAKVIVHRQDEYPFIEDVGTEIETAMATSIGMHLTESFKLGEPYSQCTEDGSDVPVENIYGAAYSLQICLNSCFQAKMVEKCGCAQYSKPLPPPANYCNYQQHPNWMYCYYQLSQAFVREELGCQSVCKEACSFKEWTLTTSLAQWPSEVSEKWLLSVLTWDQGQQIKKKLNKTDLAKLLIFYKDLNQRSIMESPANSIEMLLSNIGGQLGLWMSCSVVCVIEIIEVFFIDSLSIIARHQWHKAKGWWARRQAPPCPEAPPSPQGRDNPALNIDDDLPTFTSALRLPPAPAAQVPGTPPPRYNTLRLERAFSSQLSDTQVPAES
The assay can be described thus: Amiloride-sensitive ENaC-dependent tracheal PD, ex vivo pig trachea. Particulars: for AUC of amiloride-sensitive ENaC-dependent tracheal PD responses, analysis of variance: AUC normalised to average of first four peaks, Rx 3.10^−5M alone; for AUC of amiloride-sensitive ENaC-dependent tracheal PD responses, analysis of variance / baseline tracheal PD during perfusion of the agent / responses to 5 min amiloride perfusion during perfusion of the agent: +50 mM-NaCl, combinations with 10^−5 M Rx; for AUC of amiloride-sensitive ENaC-dependent tracheal PD responses, analysis of variance / responses to 5 min amiloride perfusion during perfusion of the agent: 100 mosM-mannitol; for baseline tracheal PD during perfusion of the agent / responses to 5 min amiloride perfusion during perfusion of the agent: perfused in BSS: Rx 3.10^−5M alone, 50 mM sodium gluconate, 0.1 mM-UTP. The procedure: (§1) FIG. 1 A description of the equipment used to measure electrical potential difference (PD) across the pig trachea ex vivo (FIG. 1A). Pig tracheas placed on a sloping radiator heated at 37° C. A reference electrode consisting of silicone tubing filled with Signa electrode cream was attached to the outer surface of the trachea. A double lumen recording electrode (FIG. 1B) was placed inside the trachea in contact with the tracheal epithelium. The inner tubing of the recording electrode was used to perfuse onto the surface of the trachea buffer solutions and buffer solutions containing drugs and agents. The outer part of the recording electrode was also filled with Signa electrode cream. The ends of the electrodes not in contact with the trachea were placed in Ringer buffer solution. Electrical contact to calomel half-cells in 3M-KCl solution was achieved by silicone tubing bridges filled with Signa electrode cream. The calomel half-cells were connected to a high impedance digital electrometer (Agilent U1252A). Digital PD values were recorded continuously every 1 second for the duration each study and were filed onto a PC.
as §1, with “Pig” for “FIG. 1 A description of the equipment used to measure electrical potential difference (PD) across the pig trachea ex vivo (FIG. 1A). Pig”, “were obtained from” for “placed on”, “local abattoir or Veterinary University. The lumen of each trachea was cleaned by gentle irrigation with BSS.” for “sloping radiator heated at 37° C.”, “trachea according to the diagram in FIG. 1A. Pig tracheas were placed on a sloping radiator heated at 37° C.” for “trachea.”, “duration of” for “duration”
During each study the amiloride-sensitive, ENaC-dependent component of tracheal PD was determined periodically by perfusion (at 1 ml/min) of buffer solution containing 3×10^−6 M amiloride onto the epithelial surface of the trachea for 5 min, followed by washout for 10 minutes with buffer solution without amiloride. Each response to amiloride was quantified by measuring the area under the curve (AUC) response (mV.min) to amiloride perfusion and washout.

The subject of the next assay is ENaC. Particulars: human airway epithelial cells; Rasgado et al. 2009 & 2013; cited from earlier work.

`N=C(N)Nc1ccc(C(=O)Oc2ccc3cc(C(=N)N)ccc3c2)cc1` [6-amidino-2-napthyl 4-guanidinobenzoate]: in assay [1], the “AUC of amiloride-sensitive ENaC-dependent tracheal PD responses, analysis of variance” value is listed as “significant reduction (p<0.0001)”; the “baseline tracheal PD during perfusion of the agent” value is listed as “depolarise”; the “responses to 5 min amiloride perfusion during perfusion of the agent” value (shortened to “responses … of the agent”) was “decrease”. Further, the “down-regulation of amiloride-sensitive ENaC-dependent tracheal PD responses, dose series” value in assay [1] (doses 3.10^−8 M, 10^−7 M, 3.10^−7 M, 10^−6 M, 3.10^−6 M, and 10^−5 M, all doses) is listed as “Significant down-regulation”.

As to `O=c1ccn([C@@H]2O[C@H](COP(=O)(O)OP(=O)(O)OP(=O)(O)O)[C@@H](O)[C@H]2O)c(=O)[nH]1` [UTP, uridine 5′-triphosphate], in assay [1], the “baseline tracheal PD during perfusion of the agent” value is given as “partially depolarise” and the “responses … of the agent” value is on record as “decrease”.

Regarding `N=C(N)NC(=O)c1nc(Cl)c(N)nc1N` [amiloride], the “time for tracheal PD to reach plateau depolarisation following initiation of amiloride perfusion” value in assay [1] (3×10^−6 M amiloride perfused 5 min in BSS at 1 ml/min, mean of 23 tracheas) is “about 2 min”. For the same compound, in assay [1] (after 5 min perfusion of amiloride, washout with BSS), the “time for tracheal PD to return to baseline after initiation of washout” value is given as “approximately 5 min”.

Turning to `OC[C@@H](O)[C@@H](O)[C@H](O)[C@H](O)CO` [hyperosmotic mannitol, mannitol], in assay [1], the “AUC of amiloride-sensitive ENaC-dependent tracheal PD responses, analysis of variance” value was “significantly reduced” and the “responses … of the agent” value was “decrease”. In addition, in assay [1] (washout 60 min with BSS), the “responses to 5 min amiloride perfusion on final perfusion with BSS without the agent” value was “recover”. Further, in the assay with ENaC, the “effect of hyperosmotic concentrations on ENaC activity” value is recorded as “reduced ENaC activity”.

On to `O=C([O-])[C@H](O)[C@@H](O)[C@H](O)[C@H](O)CO.[Na+]` [hyperosmotic sodium gluconate, sodium gluconate], for which, in assay [1], the “baseline tracheal PD during perfusion of the agent” value is “partially depolarise” and the “responses … of the agent” value is given as “decrease”.
